# ChEMBL document CHEMBL5523684, “Development of a tetrahydroindazolone-based HDAC6 inhibitor with in-vivo anti-arthritic activity” (Bioorg Med Chem, 2024)
# Legend:
# Homo sapiens = species: Homo sapiens; experiment: Selectivity index, ratio of IC50 for inhibition of his-tagged human recombinant HDAC1 using fluor de lys-SIRT1 as substrate to IC50 for inhibition of N-terminal GST-tagged human recombinant HDAC6 expressed in Spodoptera frugiperda
# Histone deacetylase 1 = Histone deacetylase 1 (Homo sapiens, UniProt Q13547); experiment: Inhibition of human recombinant HDAC1 using fluorescent peptide p53 (379 to 382 residues) RHKK(Ac) as substrate by fluorescence based analysis
# Chain of Histone deacetylase 1 (Q13547 whole entry, the tested form may be a part): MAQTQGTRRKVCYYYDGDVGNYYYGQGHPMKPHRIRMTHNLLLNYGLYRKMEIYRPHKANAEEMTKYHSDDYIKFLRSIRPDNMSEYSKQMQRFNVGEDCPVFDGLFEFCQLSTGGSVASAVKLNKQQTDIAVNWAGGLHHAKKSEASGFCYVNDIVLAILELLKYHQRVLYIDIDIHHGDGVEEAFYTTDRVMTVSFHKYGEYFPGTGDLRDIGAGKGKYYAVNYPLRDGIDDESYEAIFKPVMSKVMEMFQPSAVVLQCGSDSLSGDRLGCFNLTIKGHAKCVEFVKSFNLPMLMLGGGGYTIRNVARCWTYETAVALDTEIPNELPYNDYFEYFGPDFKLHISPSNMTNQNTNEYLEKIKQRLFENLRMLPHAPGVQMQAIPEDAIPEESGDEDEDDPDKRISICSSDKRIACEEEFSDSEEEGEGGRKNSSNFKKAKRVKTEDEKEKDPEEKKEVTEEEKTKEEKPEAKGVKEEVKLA
# Histone deacetylase 2 = Histone deacetylase 2 (Homo sapiens, UniProt Q92769); experiment: Inhibition of human recombinant HDAC2 using fluorescent peptide p53 (379 to 382 residues) RHKK(Ac) as substrate by fluorescence based analysis
# Chain of Histone deacetylase 2 (Q92769 whole entry, the tested form may be a part): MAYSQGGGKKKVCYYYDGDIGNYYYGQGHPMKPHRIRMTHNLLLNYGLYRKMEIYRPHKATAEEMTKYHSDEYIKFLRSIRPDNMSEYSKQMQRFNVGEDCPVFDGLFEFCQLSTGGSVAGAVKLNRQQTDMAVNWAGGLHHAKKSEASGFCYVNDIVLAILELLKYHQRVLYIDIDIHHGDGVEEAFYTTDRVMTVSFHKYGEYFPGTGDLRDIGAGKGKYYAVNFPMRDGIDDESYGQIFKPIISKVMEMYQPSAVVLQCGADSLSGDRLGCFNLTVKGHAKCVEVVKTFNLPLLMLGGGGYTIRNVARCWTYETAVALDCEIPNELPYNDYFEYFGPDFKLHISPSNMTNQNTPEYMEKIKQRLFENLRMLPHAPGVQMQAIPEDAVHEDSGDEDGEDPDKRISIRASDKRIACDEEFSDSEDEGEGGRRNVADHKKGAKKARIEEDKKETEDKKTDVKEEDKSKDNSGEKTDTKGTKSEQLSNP
# Histone deacetylase 3 = Histone deacetylase 3 (Homo sapiens, UniProt O15379)
# Chain of Histone deacetylase 3 (O15379 whole entry): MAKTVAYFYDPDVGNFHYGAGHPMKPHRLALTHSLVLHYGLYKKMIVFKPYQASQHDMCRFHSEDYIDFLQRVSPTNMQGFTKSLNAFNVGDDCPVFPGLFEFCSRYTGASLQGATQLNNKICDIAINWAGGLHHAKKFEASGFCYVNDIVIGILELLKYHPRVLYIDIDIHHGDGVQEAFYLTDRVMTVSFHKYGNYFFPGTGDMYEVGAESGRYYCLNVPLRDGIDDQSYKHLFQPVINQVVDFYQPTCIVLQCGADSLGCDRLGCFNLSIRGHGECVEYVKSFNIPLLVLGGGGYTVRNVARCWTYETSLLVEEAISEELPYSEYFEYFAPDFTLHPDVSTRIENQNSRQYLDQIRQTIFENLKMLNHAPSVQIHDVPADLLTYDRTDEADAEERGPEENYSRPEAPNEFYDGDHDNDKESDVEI
# Histone deacetylase 7 = molecular target: T1, Histone deacetylase 7 (Homo sapiens, UniProt Q8WUI4); experiment: Inhibition of human recombinant HDAC7 using Boc-Lys(tri-fluoroacetyl)-AMC as substrate by fluorescence based analysis
# T1 sequence (Q8WUI4 whole entry): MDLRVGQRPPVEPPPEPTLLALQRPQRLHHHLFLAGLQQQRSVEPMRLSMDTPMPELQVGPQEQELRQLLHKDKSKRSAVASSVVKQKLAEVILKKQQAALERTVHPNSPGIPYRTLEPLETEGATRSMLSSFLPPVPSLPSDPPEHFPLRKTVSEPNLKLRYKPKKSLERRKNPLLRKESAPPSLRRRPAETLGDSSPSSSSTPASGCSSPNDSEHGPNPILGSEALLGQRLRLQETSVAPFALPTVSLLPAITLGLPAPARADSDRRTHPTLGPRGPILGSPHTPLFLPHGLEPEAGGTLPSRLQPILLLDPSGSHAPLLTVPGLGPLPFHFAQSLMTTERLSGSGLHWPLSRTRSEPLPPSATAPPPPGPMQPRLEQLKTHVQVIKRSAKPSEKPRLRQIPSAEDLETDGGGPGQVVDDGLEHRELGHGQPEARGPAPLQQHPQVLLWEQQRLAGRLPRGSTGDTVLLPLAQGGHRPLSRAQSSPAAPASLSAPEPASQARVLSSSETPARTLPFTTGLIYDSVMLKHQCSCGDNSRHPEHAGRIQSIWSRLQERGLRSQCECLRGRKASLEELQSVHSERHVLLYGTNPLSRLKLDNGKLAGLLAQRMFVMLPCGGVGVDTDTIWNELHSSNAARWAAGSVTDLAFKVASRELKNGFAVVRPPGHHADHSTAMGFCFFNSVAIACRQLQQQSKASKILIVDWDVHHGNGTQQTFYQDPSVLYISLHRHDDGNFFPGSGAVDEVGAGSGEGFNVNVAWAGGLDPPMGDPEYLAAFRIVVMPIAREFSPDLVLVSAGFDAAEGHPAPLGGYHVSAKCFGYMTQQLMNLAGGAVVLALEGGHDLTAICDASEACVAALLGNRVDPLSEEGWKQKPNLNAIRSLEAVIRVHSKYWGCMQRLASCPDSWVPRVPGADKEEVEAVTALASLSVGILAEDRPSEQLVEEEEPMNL
# Histone deacetylase 8 = molecular target: T2, Histone deacetylase 8 (Homo sapiens, UniProt Q9BY41); experiment: Inhibition of human recombinant HDAC8 using fluorescent peptide p53 (379 to 382 residues) (RHK(Ac)K(Ac)) as substrate by fluorescence based analysis
# T2 sequence (Q9BY41 whole entry): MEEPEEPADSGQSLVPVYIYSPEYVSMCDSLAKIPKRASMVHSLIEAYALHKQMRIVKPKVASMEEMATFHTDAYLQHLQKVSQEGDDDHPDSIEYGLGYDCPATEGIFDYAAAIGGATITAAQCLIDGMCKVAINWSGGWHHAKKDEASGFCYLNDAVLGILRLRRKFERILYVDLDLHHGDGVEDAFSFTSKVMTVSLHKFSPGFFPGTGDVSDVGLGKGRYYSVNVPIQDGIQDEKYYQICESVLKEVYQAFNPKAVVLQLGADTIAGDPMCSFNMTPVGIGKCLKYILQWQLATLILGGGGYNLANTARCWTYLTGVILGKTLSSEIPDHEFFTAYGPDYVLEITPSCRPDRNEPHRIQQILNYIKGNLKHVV
# [1] = molecular target: T3, Polyamine deacetylase HDAC10 (Homo sapiens, UniProt Q969S8); experiment: Inhibition of human recombinant HDAC10 using fluorescent peptide p53 (379 to 382 residues) RHKK(Ac) as substrate by fluorescence based analysis
# T3 sequence (Q969S8 whole entry): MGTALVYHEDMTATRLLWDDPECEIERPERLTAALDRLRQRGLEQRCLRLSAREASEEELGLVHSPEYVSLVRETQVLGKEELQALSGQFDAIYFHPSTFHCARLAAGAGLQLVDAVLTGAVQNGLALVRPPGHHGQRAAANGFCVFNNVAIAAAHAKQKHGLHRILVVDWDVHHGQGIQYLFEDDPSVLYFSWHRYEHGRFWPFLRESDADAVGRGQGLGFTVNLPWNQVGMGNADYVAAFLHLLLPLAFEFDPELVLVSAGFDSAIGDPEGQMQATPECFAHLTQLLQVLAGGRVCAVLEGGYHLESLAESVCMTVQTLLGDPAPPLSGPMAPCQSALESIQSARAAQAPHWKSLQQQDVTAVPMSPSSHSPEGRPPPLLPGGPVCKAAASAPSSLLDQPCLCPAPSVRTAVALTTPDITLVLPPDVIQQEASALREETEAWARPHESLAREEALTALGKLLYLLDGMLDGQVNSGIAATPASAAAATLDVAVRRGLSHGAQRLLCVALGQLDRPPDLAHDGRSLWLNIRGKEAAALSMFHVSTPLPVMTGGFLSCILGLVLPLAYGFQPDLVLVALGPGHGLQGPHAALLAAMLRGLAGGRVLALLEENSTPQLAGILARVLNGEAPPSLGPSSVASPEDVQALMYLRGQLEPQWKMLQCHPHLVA
# Histone deacetylase 11 = molecular target: T4, Histone deacetylase 11 (Homo sapiens, UniProt Q96DB2); experiment: Inhibition of human recombinant HDAC11 using fluorescent peptide p53 (379 to 382 residues) RHKK(Ac) as substrate by fluorescence based analysis
# T4 sequence (Q96DB2 whole entry): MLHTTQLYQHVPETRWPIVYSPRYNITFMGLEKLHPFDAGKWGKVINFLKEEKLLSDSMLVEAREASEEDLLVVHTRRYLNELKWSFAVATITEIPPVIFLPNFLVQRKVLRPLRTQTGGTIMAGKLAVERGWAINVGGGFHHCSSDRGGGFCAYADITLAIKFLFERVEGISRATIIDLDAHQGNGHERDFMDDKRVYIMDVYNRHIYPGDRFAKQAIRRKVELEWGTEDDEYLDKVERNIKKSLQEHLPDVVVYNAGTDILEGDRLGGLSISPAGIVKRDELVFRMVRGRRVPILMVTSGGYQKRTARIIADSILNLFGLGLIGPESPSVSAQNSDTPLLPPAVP
# [2] = C0 in dog at 0.5 mg/kg, iv; format: ADME, organism-based, Canis lupus familiaris; conditions: in vivo
# [3] = Bioavailability in monkey at 0.5 mg/kg, iv; format: ADME, organism-based, Macaca mulatta; conditions: rhesus monkey, in vivo
# Rattus norvegicus = experiment: Antiarthritic activity against adjuvant-induced arthritis Lewis rat model assessed as improvement in arthritis symptoms at 50 mg/kg, po measured after 8 days; format: functional; conditions: time 8 day
C0 [2] [ng/mL],bioavailability [3] [%],Compound,Ratio IC50 (Homo sapiens),IC50 (Histone deacetylase 1) [µM],IC50 (Histone deacetylase 2) [µM],IC50 (Histone deacetylase 3) [µM],IC50 (Histone deacetylase 7) [µM],IC50 (Histone deacetylase 8) [µM],IC50 [1] [µM],IC50 (Histone deacetylase 11) [µM],Activity (Rattus norvegicus) [%]
–,–,O=C(NO)c1ccc(Cn2c3c(c4ccccc42)C(=O)CCC3)cc1,168,18.1,> 20,> 20,> 20,> 20,> 20,> 20,–
2080,11.2,CC1(C)CC(=O)c2c(C(F)(F)F)nn(Cc3ccc(C(=O)NO)cc3)c2C1,217,> 20,> 20,> 20,> 20,> 20,> 20,> 20,59.6
